# Source: publication PMC6672008, “Small molecule degraders of the hepatitis C virus protease reduce susceptibility to resistance mutations” (Nature Communications, 2019)
# Values joined by “and” are separate entries in the source; they are usually repeats but may differ in a detail not shown here. Identical values can stand only once. “Also recorded” adds a separate entry of the source. Like-named read-outs stand apart in the source and are kept apart here.
# How the values were obtained:
# [1] = Cytotoxicity assay (CellTiter-Glo, 24 h); format: cell-based; settings: human, CC50 (50% loss of viability)
# [2] = target: HCV NS3-eGFP protein fusion (Hepatitis C virus genotype 2a, UniProt Q99IB8); format: cell-based; settings: for degradation of HCV NS3 in the transient assay (in words): increasing concentrations; for DC50: 4 h treatment
# DDB1∆B-CRBN = DDB1∆B-CRBN (Homo sapiens, UniProt Q96SW2); assay: CRBN-binding assay (fluorescence polarization, displacement of Atto565-lenalidomide); settings: fluorescence polarization competition
# Protocol: Measurement of compounds binding to CRBN was performed by fluorescence polarization. […] Compounds were dispensed using a D300e Digital Dispenser (HP), normalized to 1% DMSO, and incubated for 60 min at room temperature. The change in fluorescence polarization was monitored using a PHERAstar FS microplate reader (BMG Labtech) for 20 min in 200 s cycles. […]
# Increasing concentrations of compounds were titrated to preformed DDB1∆B-CRBN-lenalidomideAtto565 complex. Data are presented as means normalized to DMSO ± standard deviation of n = 4 technical replicates. […]
# d Measurement of NS3/4A protease inhibition in vitro. Cell lysates containing the endogenous NS3/4A protease were prepared from cells stably expressing an HCV […]
# subgenomic replicon. […]
# HCV-NS3-V55A = assay: microbe, parasite or virus in culture; format: cell-based, hepatitis C virus
# Huh7.5-SGR cells = assay: Cytotoxicity assay (CellTiter-Glo, 24 h); format: cell-based; settings: read-out: CC50 (50% loss of viability), single experiments, individual experiments
# HCV-JFH1-ad = assay: microbe, parasite or virus in culture; format: cell-based, hepatitis C virus
# wildtype HCV-Jc1 = assay: microbe, parasite or virus in culture; format: cell-based, hepatitis C virus
# HCV-NS3-A156S = assay: microbe, parasite or virus in culture; format: cell-based, hepatitis C virus; settings: for change in antiviral potency, NS3-A156S vs wildtype: ratio of IC50 values
# HCV NS3 [3] = target: T1, HCV NS3 (Hepatitis C virus genotype 2a, UniProt Q99IB8); format: cell-based; settings: 1000 nM, 4 h
# HCV NS3 [4] = target: T1, HCV NS3; format: cell-based; settings: percentage of DMSO-treated control, 1000 nM (legend; picture prints 500nM)
# CRBN [5] = target: T2, CRBN (Homo sapiens, UniProt Q96SW2); assay: Competitive displacement assay for cellular CRBN engagement (rescue of dBET6-mediated BRD4BD2-eGFP degradation); format: cell-based; settings: co-treated with 100 nM dBET6, 5 h
# CRBN [6] = target: T2, CRBN; assay: Cellular thermal shift assay for CRBN engagement (HEK293T cells); format: cell-based; settings: 1 h at 37 °C, heated at 61 °C, dose-response
# HCV NS3 [7] = format: cell-based, hepatitis C virus; settings: 1000 nM, 4 h; selectivity
# [8] = average value reported, averaged from n = 2
# [9] = single experiments, individual experiments
# [10] = 500 nM compound + 500 nM lenalidomide, 4 h, Supplementary Fig. 4c
# [11] = 500 nM compound + 5000 nM lenalidomide, 4 h, Supplementary Fig. 4c
# [12] = 500 nM compound + DMSO, 4 h, Supplementary Fig. 4c
# [13] = Hepatitis C virus, Huh7.5, read-out: antiviral IC50, NS3-V55A virus, average value reported, Huh7.5, MOI 0.1, treated 24 to 48 h post-infection
# [14] = Hepatitis C virus, Huh7.5, read-out: antiviral IC50, NS3-V55A virus, single experiments, Huh7.5, MOI 0.1, treated 24 to 48 h post-infection
# [15] = read-out: antiviral IC50, NS3-V55A virus, single experiments, Huh7.5, MOI 0.1, treated 24 to 48 h post-infection
# [16] = Hepatitis C virus, Huh7.5, read-out: antiviral IC50 (50% reduction in viral titers), average value reported, Huh7.5, MOI 0.1, treated 24 to 48 h post-infection, average of n ≥ 2 experiments
# [17] = read-out: antiviral IC50 (50% reduction in viral titers), single experiments, Huh7.5, MOI 0.1, treated 24 to 48 h post-infection, individual experiments
# [18] = Hepatitis C virus, Huh7.5, read-out: antiviral IC50, wildtype virus, average value reported, Huh7.5, MOI 0.1, treated 24 to 48 h post-infection
# [19] = Hepatitis C virus, Huh7.5, read-out: antiviral IC50, wildtype virus, single experiments, Huh7.5, MOI 0.1, treated 24 to 48 h post-infection
# [20] = read-out: antiviral IC50, wildtype virus, single experiments, Huh7.5, MOI 0.1, treated 24 to 48 h post-infection
# [21] = Hepatitis C virus, Huh7.5, read-out: antiviral IC50, NS3-A156S virus, average value reported, Huh7.5, MOI 0.1, treated 24 to 48 h post-infection
# [22] = Hepatitis C virus, Huh7.5, read-out: antiviral IC50, NS3-A156S virus, single experiments, Huh7.5, MOI 0.1, treated 24 to 48 h post-infection
# [23] = read-out: antiviral IC50, NS3-A156S virus, single experiments, Huh7.5, MOI 0.1, treated 24 to 48 h post-infection
# [24] = 1000 nM compound + 5000 nM lenalidomide, 4 h, Fig. 2d
# [25] = 1000 nM compound + DMSO, 4 h, Fig. 2d
# [26] = Huh7.5 CRBN-/-, HCV-JFH1-ad MOI 0.1, 24 to 48 h post-infection
# [27] = wildtype Huh7.5, HCV-JFH1-ad MOI 0.1, 24 to 48 h post-infection
# [28] = Hepatitis C virus, Huh7.5, read-out: antiviral IC50 (50% reduction in viral titers), single experiments, Huh7.5, MOI 0.1, treated 24 to 48 h post-infection, individual experiments
# [29] = read-out: NS3-eGFP degradation DC50, average value reported, average of n ≥ 2 independent experiments
# [30] = read-out: NS3-eGFP degradation DC50, single experiments, individual experiments (source data)
Structure (SMILES),"CC50 at 24 h [1, 8] [nM]","CC50 at 24 h [1, 9] [nM]","NS3-eGFP/mCherry ratio normalized to DMSO, average [2, 10]","NS3-eGFP/mCherry ratio normalized to DMSO, single experiments [2, 10]","NS3-eGFP/mCherry ratio normalized to DMSO, average [2, 11]","NS3-eGFP/mCherry ratio normalized to DMSO, single experiments [2, 11]","NS3-eGFP/mCherry ratio normalized to DMSO, average [2, 12]","NS3-eGFP/mCherry ratio normalized to DMSO, single experiments [2, 12]",degradation of HCV NS3 in the transient assay (in words) ([2]; 4 h),binding to CRBN (in words) (DDB1∆B-CRBN),IC50 (HCV-NS3-V55A; [13]) [nM],IC50 (HCV-NS3-V55A; [14]) [nM],IC50 (HCV-NS3-V55A; [15]),IC50 (HCV-JFH1-ad; [16]) [nM],IC50 (HCV-JFH1-ad; [17]),IC50 (wildtype HCV-Jc1; [18]) [nM],IC50 (wildtype HCV-Jc1; [19]) [nM],EC50 (CRBN [5]) [nM],"DC50 [2, 29] [nM]","DC50 [2, 30]",other results
CCC[C@H](NC(=O)[C@@H]1[C@H]2CCC[C@H]2CN1C(=O)[C@@H](NC(=O)[C@@H](NC(=O)c1cnc(C(=O)NCCOCCOCCNc2cccc3c2C(=O)N(C2CCC(=O)N(C)C2=O)C3=O)cn1)C1CCCCC1)C(C)(C)C)C(=O)C(=O)NC1CC1 (stereo partly drawn) [DGY-04-035-BUMP],> 40000,> 40000,0.98,0.98 and 0.99,0.98,1.00 and 0.97,0.98,0.98 and 0.99,neither compound induced degradation of HCV NS3,Neither DGY-04-035-BUMP nor DGY-08-097-BUMP exhibit detectable binding to CRBN; also recorded: loss of CRBN-binding,–,–,–,–,–,–,–,–,–,–,–
"CCC[C@H](NC(=O)[C@@H]1[C@H]2CCC[C@H]2CN1C(=O)[C@@H](NC(=O)[C@@H](NC(=O)c1cnccn1)C1CCCCC1)C(C)(C)C)C(=O)C(=O)NC1CC1 [telaprevir, reference compound]",28000,32000,–,–,–,–,–,–,–,–,288,190,304 nM and 372 nM,132,114 nM and 91 nM and 86 nM and 236 nM,98,110,–,–,–,"change in antiviral potency, NS3-V55A vs wildtype (HCV-NS3-V55A; ratio of IC50 values): 3 fold; CC50 (Huh7.5-SGR cells): > 40000 nM and 24000 nM; IC50 (wildtype HCV-Jc1; [20]): 72 nM and 111 nM; IC50 (HCV-NS3-A156S; [21]): 949 nM; IC50 (HCV-NS3-A156S; [22]): 756 nM; change in antiviral potency, NS3-A156S vs wildtype (HCV-NS3-A156S): 10 fold; IC50 (HCV-NS3-A156S; [23]): 1140 nM"
CCC[C@H](NC(=O)[C@@H]1[C@H]2CCC[C@H]2CN1C(=O)[C@@H](NC(=O)[C@@H](NC(=O)c1cnc(C(=O)NCCOCCOCCOc2cc3c4c(cccc4c2)C(=O)N(C2CCC(=O)N(C)C2=O)C3=O)cn1)C1CCCCC1)C(C)(C)C)C(=O)C(=O)NC1CC1 (stereo partly drawn) [DGY-08-097-BUMP],> 40000,> 40000,–,–,–,–,–,–,neither compound induced degradation of HCV NS3,Neither DGY-04-035-BUMP nor DGY-08-097-BUMP exhibit detectable binding to CRBN; also recorded: loss of CRBN-binding,–,–,–,–,–,–,–,–,–,–,"change of HCV NS3 abundance vs DMSO (in words) (HCV NS3 [3]): No significant degradation of HCV NS3 or any other cellular protein; also recorded: unaffected; NS3-eGFP/mCherry ratio normalized to DMSO, average [2, 24]: 0.96; NS3-eGFP/mCherry ratio normalized to DMSO, single experiments [2, 24]: 0.92 and 1.00; NS3-eGFP/mCherry ratio normalized to DMSO, average [2, 25]: 0.92; NS3-eGFP/mCherry ratio normalized to DMSO, single experiments [2, 25]: 0.92"
CCC[C@H](NC(=O)[C@@H]1[C@H]2CCC[C@H]2CN1C(=O)[C@@H](NC(=O)[C@@H](NC(=O)c1cnc(C(=O)NCCCCCCNc2cccc3c2CN(C2CCC(=O)NC2=O)C3=O)cn1)C1CCCCC1)C(C)(C)C)C(=O)C(=O)NC1CC1 (stereo partly drawn) [DGY-03-081],> 40000,> 40000,0.71,0.72 and 0.71,0.84,0.85 and 0.83,0.65,0.65 and 0.64,–,–,–,–,–,3070,2840 nM,–,–,576,669,642 nM and 695 nM,"relative NS3 levels (normalized to GAPDH), CRBN-/- cells, average (HCV NS3 [4]; [26]): 101%; relative NS3 levels (normalized to GAPDH), wildtype cells, average (HCV NS3 [4]; [27]): 50%; IC50 (HCV-JFH1-ad; [28]): 3300 nM"
CCC[C@H](NC(=O)[C@@H]1[C@H]2CCC[C@H]2CN1C(=O)[C@@H](NC(=O)[C@@H](NC(=O)c1cnc(C(=O)NCCOCCOCCOc2cc3c4c(cccc4c2)C(=O)N(C2CCC(=O)NC2=O)C3=O)cn1)C1CCCCC1)C(C)(C)C)C(=O)C(=O)NC1CC1 (stereo partly drawn) [DGY-08-097],> 40000,> 40000,–,–,–,–,–,–,–,–,508,403,380 nM and 742 nM,748,706 nM and 627 nM and 425 nM and 1230 nM,558,630,703,50,51 nM and 49 nM and 46 nM and 54 nM,"stabilization of CRBN in cellular thermal shift assay (CRBN [6]): concentration-dependent stabilization of CRBN; degradation of IMiDs neo-substrates IKZF1 and IKZF3 (HCV NS3 [7]): no degradation; other proteins significantly affected (of ~8700 quantified) (HCV NS3 [7]): no other protein of the ~8700 quantified was observed to be significantly affected; IC50 (wildtype HCV-Jc1; [20]): 417 nM and 627 nM; IC50 (HCV-NS3-A156S; [21]): 1560 nM; IC50 (HCV-NS3-A156S; [22]): 2020 nM; change in antiviral potency, NS3-A156S vs wildtype (HCV-NS3-A156S): 3 fold; IC50 (HCV-NS3-A156S; [23]): 1110 nM; NS3-eGFP/mCherry ratio normalized to DMSO, average [2, 24]: 0.60; NS3-eGFP/mCherry ratio normalized to DMSO, single experiments [2, 24]: 0.62 and 0.58; NS3-eGFP/mCherry ratio normalized to DMSO, average [2, 25]: 0.24; NS3-eGFP/mCherry ratio normalized to DMSO, single experiments [2, 25]: 0.23 and 0.25; concentrations at which a hook effect was observed in the transient NS3 degradation assay ([2]; 4 h): above 1000 nM"
CCC[C@H](NC(=O)[C@@H]1[C@H]2CCC[C@H]2CN1C(=O)[C@@H](NC(=O)[C@@H](NC(=O)c1cnc(C(=O)NCCOCCOCCNc2cccc3c2C(=O)N(C2CCC(=O)NC2=O)C3=O)cn1)C1CCCCC1)C(C)(C)C)C(=O)C(=O)NC1CC1 (stereo partly drawn) [DGY-04-035],> 40000,> 40000,0.66,0.67 and 0.64,0.86,0.87 and 0.85,0.54,0.54 and 0.53,–,–,–,–,–,–,2650 nM and 3950 nM,–,–,641,489,444 nM and 438 nM and 379 nM and 650 nM and 532 nM,"relative NS3 levels (normalized to GAPDH), CRBN-/- cells, average (HCV NS3 [4]; [26]): 87%; relative NS3 levels (normalized to GAPDH), CRBN-/- cells, single experiments (HCV NS3 [4]; [26]): 107% and 74% and 80%; relative NS3 levels (normalized to GAPDH), wildtype cells, average (HCV NS3 [4]; [27]): 48%; relative NS3 levels (normalized to GAPDH), wildtype cells, single experiments (HCV NS3 [4]; [27]): 54% and 46% and 44%; IC50 (HCV-JFH1-ad; [28]): 2160 nM"
